According to patent publication US12708630B2, “Combined therapy of 4′-thio-5-aza-2′-deoxycytidine and Venetoclax” (PINOTBIO, INC., priority 2021, dated 2026):

Assays:
Assay in all cases: drug activity profiling cytotoxicity
Assay type in all cases: cell-based
22Rv1 = details: Homo sapiens; 22Rv1 cell line, Prostate; read-out: Aza-T-dCyd IC50
Procedure, shortened: (§1)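 Broad drug activity profiling (200 cell lines) evaluates how cytotoxic Aza-T-dCyd is in each line.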

A-673 = details: Homo sapiens, A673; A-673 cell line, Sarcoma; read-out: Aza-T-dCyd IC50
Procedure, shortened: as §1

A388 = A388 cell line, Skin (Head and Neck); read-out: Aza-T-dCyd IC50
Procedure, shortened: as §1

A498 = details: Homo sapiens; A498 cell line, Kidney; read-out: Aza-T-dCyd IC50
Procedure, shortened: as §1

ARH-77 = details: Homo sapiens; ARH-77 cell line, B-cell lymphoma; read-out: Aza-T-dCyd IC50
Procedure, shortened: as §1

AU565 = details: Homo sapiens; AU565 cell line, Breast; read-out: Aza-T-dCyd IC50
Procedure, shortened: as §1

BC-1 = details: Homo sapiens, BC1; BC-1 cell line, B-cell lymphoma; read-out: Aza-T-dCyd IC50
Procedure, shortened: as §1

C32TG = C32TG cell line, Skin (Melanoma); read-out: Aza-T-dCyd IC50
Procedure, shortened: as §1

C32 = details: Homo sapiens; C32 cell line, Skin (Melanoma); read-out: Aza-T-dCyd IC50
Procedure, shortened: as §1

CFPAC-1 = details: Homo sapiens; CFPAC-1 cell line, Pancreas; read-out: Aza-T-dCyd IC50
Procedure, shortened: as §1

DOHH-2 = details: Homo sapiens; DOHH-2 cell line, B-cell lymphoma; read-out: Aza-T-dCyd IC50
Procedure, shortened: as §1

EB2 = details: Homo sapiens; EB2 cell line, Burkitt's lymphoma; read-out: Aza-T-dCyd IC50
Procedure, shortened: as §1

HL-60 = details: Homo sapiens; HL-60 cell line, AML; read-out: Aza-T-dCyd IC50
Procedure, shortened: as §1

HT1376 = details: Homo sapiens, HT-1376; HT1376 cell line, Bladder; read-out: Aza-T-dCyd IC50
Procedure, shortened: as §1

HepG2 = details: Homo sapiens; HepG2 cell line, Liver; read-out: Aza-T-dCyd IC50
Procedure, shortened: as §1

Hs 852.T = Hs 852.T cell line, Skin (Melanoma); read-out: Aza-T-dCyd IC50
Procedure, shortened: as §1

Hs 936.T(C1) = Hs 936.T(C1) cell line, Skin (Melanoma); read-out: Aza-T-dCyd IC50
Procedure, shortened: as §1

JeKo-1 = details: Homo sapiens; JeKo-1 cell line, B-cell lymphoma; read-out: Aza-T-dCyd IC50
Procedure, shortened: as §1

MDA MB 453 = details: Homo sapiens; MDA MB 453 cell line, Breast; read-out: Aza-T-dCyd IC50
Procedure, shortened: as §1

MV-4-11 = details: Homo sapiens, MV4-11; MV-4-11 cell line, AML; read-out: Aza-T-dCyd IC50
Procedure, shortened: as §1

NCIH446 = details: Homo sapiens, NCI-H446; NCIH446 cell line, Lung (SCLC); read-out: Aza-T-dCyd IC50
Procedure, shortened: as §1

OVCAR3 = details: Homo sapiens, OVCAR-3; OVCAR3 cell line, Female GU (Ovary); read-out: Aza-T-dCyd IC50
Procedure, shortened: as §1

PA-1 = details: Homo sapiens; PA-1 cell line, Female GU (Ovary); read-out: Aza-T-dCyd IC50
Procedure, shortened: as §1

RL95-2 = details: Homo sapiens; RL95-2 cell line, Female GU (Uterus); read-out: Aza-T-dCyd IC50
Procedure, shortened: as §1

RS4; 11 = details: Homo sapiens, 11 cell line, ALL, read-out: Aza-T-dCyd IC50
Procedure, shortened: as §1

SK-N-AS = details: Homo sapiens; SK-N-AS cell line, CNS (Neuroblastoma); read-out: Aza-T-dCyd IC50
Procedure, shortened: as §1

SNB-19 = details: Homo sapiens; SNB-19 cell line, CNS (Glioma); read-out: Aza-T-dCyd IC50
Procedure, shortened: as §1

SW579 = SW579 cell line, Endocrine (Thyroid); read-out: Aza-T-dCyd IC50
Procedure, shortened: as §1

SW962 = details: Homo sapiens, SW 962; SW962 cell line, Female GU (Vulva); read-out: Aza-T-dCyd IC50
Procedure, shortened: as §1

T47D = details: Homo sapiens; T47D cell line, Breast; read-out: Aza-T-dCyd IC50
Procedure, shortened: as §1

T98G = details: Homo sapiens; T98G cell line, CNS (Glioma); read-out: Aza-T-dCyd IC50
Procedure, shortened: as §1

## Nc1ncn([C@H]2CC(O)[C@@H](CO)S2)c(=O)n1 (stereo partly shown) [Aza-T-dCyd, 4′-thio-5-aza-2′-deoxycytidine]
22Rv1
  IC50: 2710 nM
A-673
  IC50: 698 nM
A388
  IC50: 190 nM
A498
  IC50: 73.8 nM
ARH-77
  IC50: 413 nM
AU565
  IC50: > 10000 nM
BC-1
  IC50: 338 nM
C32TG
  IC50: 953 nM
C32
  IC50: > 10000 nM
CFPAC-1
  IC50: 1750 nM
DOHH-2
  IC50: 609 nM
EB2
  IC50: 8190 nM
HL-60
  IC50: 514 nM
HT1376
  IC50: 3280 nM
HepG2
  IC50: 892 nM
Hs 852.T
  IC50: > 10000 nM
Hs 936.T(C1)
  IC50: 398 nM
JeKo-1
  IC50: 38.5 nM
MDA MB 453
  IC50: 1890 nM
MV-4-11
  IC50: 183 nM
NCIH446
  IC50: 3040 nM
OVCAR3
  IC50: 3440 nM
PA-1
  IC50: 39.2 nM
RL95-2
  IC50: 705 nM
RS4; 11
  IC50: 20.3 nM
SK-N-AS
  IC50: 1170 nM
SNB-19
  IC50: 170 nM
SW579
  IC50: 1050 nM
SW962
  IC50: > 10000 nM
T47D
  IC50: > 10000 nM
T98G
  IC50: 1390 nM
